Assay results: patent US6635636B1, “Substituted 6-benzyl-4-oxopyrimidines, process for their preparation and pharmaceutical compositions containing them” (Idenix Pharmaceuticals, Inc., priority 1998, dated 2003)
Where two headings read alike, the source gives them in different places.

Assays:
[1] = tested on: HIV-1 (IIIB strain); assay: Anti-HIV-1 assay: inhibition of virus-induced cytopathicity in acutely infected MT-4 cells (MTT); type: cell-based; settings: mean of at least two separate experiments
Protocol: (§1) Compounds. Compounds were solubilized in DMSO at 200 mM and then diluted into culture medium.
(§2) Cells and viruses. MT-4, C8166, H9/IIIB and CEM cells were grown at 37° C. in a 5% CO2 atmosphere in RPMI 1640 medium, supplemented with 10% fetal calf serum (FCS), 100 UI/mL penicillin and 100 μg/mL streptomycin. Cell cultures were checked periodically for the absence of mycoplasma contamination with a MycoTect Kit (Gibco). Human immunodeficiency virus type-1 (HIV-1, IIIB strain) was obtained from supernatants of persistently infected H9/IIIB cells.
(§3) Anti-HIV assays. Activity of the compounds against HIV-1 and HIV-2 multiplication in acutely infected cells was based on the inhibition of virus-induced cytopathicity in MT-4 and C8166 cells, respectively. Briefly, 50 μL of culture medium containing 1×10^4 cells were added to each well of flat-bottom microtiter trays containing 50 μl of culture medium with or without various concentrations of the test compounds. Then 20 μL of an HIV suspension containing 100 CCID50 were added. After a 4-day incubation at 37° C., the number of viable cells was determined by the 3-(4,5-dimethylthiazol-[…])-2,5-diphenyltetrazolium bromide (MTT) method. Cytotoxicity of the compounds was evaluated in parallel with their antiviral activity. It was based on the viability of mock-infected cells, as monitored by the MTT method.

[2] = tested on: mock-infected MT-4 cells; assay: Cytotoxicity: viability of mock-infected cells by the MTT method; type: cell-based
Protocol: as §1, §2, §3

[3] = MT-4 cells, HIV-1, MTT method, read-out: EC50 (compound dose required to achieve 50% protection of MT-4 cells from HIV-1 induced cytopathogenicity)
[4] = HIV-1 infected MT-4 cells, MTT method, read-out: EC50: compound dose required to achieve 50% protection of MT-4 cells from HIV-1 induced cytopathogenicity

Row | EC50 [1, 3] [µM] | EC50 [1, 4] [µM] | melting point [°C] | SMILES | CC50 [2] [µM]
1 | > 61 |  |  | CCC(C)Sc1nc(C(c2ccccc2)c2ccccc2)cc(=O)[nH]1 (racemic) [MC 796] | 61
2 | 1.8 |  |  | CCC(C)Sc1nc(Cc2ccccc2C)cc(=O)[nH]1 (racemic) [MC 806] | > 200
3 | 0.6 |  |  | CCC(C)Sc1nc(Cc2ccc(C)cc2)cc(=O)[nH]1 (racemic) [MC 809] | 200
4 | 0.25 |  |  | CCC(C)Sc1nc(Cc2ccccc2[N+](=O)[O-])cc(=O)[nH]1 (racemic) [MC 817] | > 200
5 | 5 |  |  | CCC(C)Sc1nc(Cc2ccc(Cl)cc2)cc(=O)[nH]1 (racemic) [MC 859] | 120
6 | 1.5 |  |  | CCC(C)Sc1nc(Cc2ccc([N+](=O)[O-])cc2)cc(=O)[nH]1 (racemic) [MC 863] | 151
7 | 32 |  |  | CCC(C)Sc1nc(Cc2ccccc2C(F)(F)F)cc(=O)[nH]1 (racemic) [MC 868] | > 200
8 | 0.7 |  |  | CCC(C)Sc1nc(Cc2cccc(F)c2)cc(=O)[nH]1 (racemic) [MC 884] | > 200
9 | 8.7 |  |  | CCC(C)Sc1nc(Cc2ccc(F)cc2)cc(=O)[nH]1 (racemic) [MC 889] | > 200
10 | 0.4 |  |  | CCC(C)Sc1nc(Cc2cccc([N+](=O)[O-])c2)cc(=O)[nH]1 (racemic) [MC 897] | 157
11 | 0.8 |  |  | CCC(c1ccccc1)c1cc(=O)[nH]c(SC(C)C)n1 (racemic) [MC 899] | 200
12 | 25 |  |  | CCC(C)Sc1nc(Cc2ccc(C(F)(F)F)cc2)cc(=O)[nH]1 (racemic) [MC 959] | 200

Further lines, the compound ahead of its results:

Row | SMILES | EC50 [1, 3] [µM] | EC50 [1, 4] [µM] | melting point [°C] | CC50 [2] [µM]
13 | CC1CCC(C)C(Oc2nc(Cc3ccccc3)cc(=O)[nH]2)C1 (mixture of isomers) [MC 507] | 3.5 |  |  | 143
14 | CC1CCC(Oc2nc(Cc3ccccc3)cc(=O)[nH]2)CC1C (mixture of isomers) [MC 508] | 6.4 |  |  | 58
15 | CC1CC(C)CC(Oc2nc(Cc3ccccc3)cc(=O)[nH]2)C1 (mixture of isomers) [MC 512] | 30 |  |  | > 200
16 | Cc1c(Cc2ccccc2)nc(OC2CC(C)CCC2C)[nH]c1=O (mixture of isomers) [MC 531] | 3.5 |  |  | 138
17 | CCC(C)Nc1nc(C(C)c2c(F)cccc2F)cc(=O)[nH]1 (mixture of isomers) [MC 1192] |  | 0.04 |  | 86
18 | CC(C)Sc1nc(C(C)c2ccccc2)cc(=O)[nH]1 (racemic) [MC 890] | 0.9 |  |  | > 200
19 | CC(c1ccccc1)c1cc(=O)[nH]c(SC2CCCC2)n1 (racemic) [MC 892] | 0.6 |  |  | 159
20 | CCC(c1ccccc1)c1cc(=O)[nH]c(SC2CCCC2)n1 (racemic) [MC 900] | 1 |  |  | > 200
21 | CCC(c1ccccc1)c1cc(=O)[nH]c(SC2CCCCC2)n1 (racemic) [MC 903] | 1.3 |  |  | > 200
22 | CCC(C)Oc1nc(Cc2c(F)cccc2F)cc(=O)[nH]1 (racemic) [MC 1114] | 25 |  |  | 130
23 | Cc1c(C(C)c2c(F)cccc2F)nc(SC(C)C)[nH]c1=O (racemic) [MC 1137] |  | 0.007 |  | 200
24 | Cc1c(C(C)c2c(F)cccc2F)nc(SCC(C)C)[nH]c1=O (racemic) [MC 1153] |  | 0.01 |  | > 200
25 | CNc1nc(C(C)c2c(F)cccc2F)c(C)c(=O)[nH]1 (racemic) [MC 1170] |  | 0.03 |  | 200
26 | Cc1c(C(C)c2c(F)cccc2F)nc(SC2CCCCC2)[nH]c1=O (racemic) [MC 1174] |  | 0.018 |  | > 200
27 | CCCCSc1nc(C(C)c2c(F)cccc2F)c(C)c(=O)[nH]1 (racemic) [MC 1175] |  | 0.008 |  | 112
28 | CNc1nc(C(C)c2c(F)cccc2F)cc(=O)[nH]1 (racemic) [MC 1178] | 0.11 |  |  | 106
29 | CC(c1cc(=O)[nH]c(NC2CCCCC2)n1)c1c(F)cccc1F (racemic) [MC 1180] |  | 0.02 |  | 56
30 | Cc1c(C(C)c2c(F)cccc2F)nc(NC2CCCCC2)[nH]c1=O (racemic) [MC 1181] |  | 0.03 |  | 58
31 | CCCCNc1nc(C(C)c2c(F)cccc2F)c(C)c(=O)[nH]1 (racemic) [MC 1187] |  | 0.01 |  | 83
32 | CCCCNc1nc(C(C)c2c(F)cccc2F)cc(=O)[nH]1 (racemic) [MC 1189] |  | 0.03 |  | 52
33 | CC(C)Nc1nc(C(C)c2c(F)cccc2F)cc(=O)[nH]1 (racemic) [MC 1191] |  | 0.03 |  | 115
34 | Cc1c(Cc2c(F)cccc2F)nc(NC2CCCC2)[nH]c1=O [MC1050, 2-Cyclopentylamino-6-(2,6-difluorophenylmethyl)-3,4-dihydro-5-methylpyrimidin-4-one] |  |  | 115 to 117 | 
35 | Cc1c([C@@H](C)c2c(F)cccc2F)nc(SC2CCCC2)[nH]c1=O [MC 1047] | 0.009 |  |  | > 200
